Where two headings read alike, the source gives them in different places.

In one test the test system is Bacillus subtillis. The test can be described thus: Example 11 curry preservability, sensory evaluation test (Table 14). The following applies: curry with AF. As to the method:
7 Parts of beef, 57 parts of vegetables (12 parts of potato, 40 parts of onion and 5 parts of carrot), 1 part of a curry powder, 6 parts of fatty oil, 0.2 parts of sodium glutamate, 1 part of starch and 40 parts of a soup were mixed together, and the mixture was heated and cooked at 80° C. for 1 hour. The resulting product was a curry containing a somewhat larger amount of soup and having a low viscosity. The following operations were conducted in a clean bench. The curry was subdivided each in an amount of 95 grams into ten plugged vessels previously sterilized. The ten vessels were divided into two groups each consisting of five vessels. A 30% solution of AF subjected to an aseptic filtration was added in an amount of 5 g into each of the vessels in one of the groups. Then, 2×10 ^5 nutritious cells of Bacillus subtillis incubated previously were inoculated into the group, and was mixed uniformly. Five grams of a 30% solution of AF subjected to an aseptic filtration was added into each of the vessels in the other group. Then, 2×10^5 nutritious cells of Bacillus subtillis incubated previously were inoculated into the group, and after mixing uniformly, heated at 60° C. for 10 minutes and then cooled rapidly. Both of the groups were preserved at […], and the preservability of them was compared by a sensory evaluation test.

The test system of test [1] is Bacillus subtillis IAM 1249. Nature of the test: Test Example 2 number of living bacteria in noodle soup preserved at 30° C. (FIG. 3). How it is done:
FIG. 3 is a graph showing the number of Bacillus. subtillis IAM 1249 living in a noodle soup under preservation.
(§1) This will be described in detail later in Test Example 2.
(§2) 40 Grams of a powdery soup stock (produced by Yamaki, Co.) and 200 ml of commercially available soy sauce were added to 1,000 ml of water to prepare a noodle soup. Bacteria were inoculated into the noodle soup, and the noodle soup was preserved at 30° C., and then, the number of living bacteria was counted. FIG. 3 is a curve showing the number of living Bacillus subtillis IAM 1249 (which will be simply referred to as B. subtillis hereinafter), and FIG. 4 is a curve showing the number of living Escherichia coli NRIC 1023 (which will be simply referred to as E. coli hereinafter). In FIGS. 3 and 4, A-1 and A′-1 are curves each indicating the number of living B. subtillis or E. colli inoculated into the unsterilized noodle soup. In the cases of A-1 and A′-1,1,5-D-anhydrofructose was not added, and P and P′ indicate the number of bacteria initially generated.
(§3) A-2 and A′-2 are curves each indicating the number of living B. subtillis or E. colli inoculated into the noodle soup sterilized by heating in hot water at […]. for 10 minutes. In the cases of A-2 and A′-2,1,5-D-anhydrofructose was not added, and the numbers of bacteria initially generated are indicated by Q and Q′, respectively. […]

For another test, the system named is many bacteria. The following applies: against many bacteria; 'has been recognized'; cited from earlier work.
Test [2] concerns Streptococcus lactis IAM 1249. The test can be described thus: minimum growth-inhibiting concentration (MIC) of AF, influence of heat treatment (Table A). In kind it is cell-based. The text has this: (§4) As described in the first process, 1,5-D-anhydrofructose is an antibacterial substance having a high safety, but the present inventors have found to obtain the following advantages when 1,5-D-anhydrofructose is previously subjected to a heat treatment. That is, an antibacterial power of 1,5-D-anhydrofructose can be further increased, and the antibacterial power is developed at a low concentration of 1,5-D-anhydrofructose, as compared with a case where 1,5-D-anhydrofructose is not subjected to the heat treatment. Consequently, a food containing 1,5-D-anhydrofructose is difficult to putrefy and at the same time, the antibacterial spectrum becomes wider.

The test system of test [3] is Bacillus subtillis IAM 1249. The description is as above. It is filed as cell-based.
From the text: as §4

Test [4] concerns Escherichia coli NRIC 1023. Described as above. It is filed as cell-based.
From the text: as §4

Test [5] has as its system Salmonella typhimurium IFO 12529. The test is described as above. It is filed as cell-based.
From the text: as §4

Test [6] concerns Staphylococcus aureus FDA 209P. Described as above. It is filed as cell-based.
From the text: as §4

In test [7] the test system is Pseudomonas aeruginosa IFO 12680. The test can be described thus: number of bacteria killed by heating in soybean-casein digest broth medium pH 5.5 (FIG. 1). In kind it is cell-based. The following applies: 1% 1,5-D-anhydrofructose, heating at 55° C. for ten minutes, pH 5.5 broth. The text has this:
FIG. 1 is a curve indicating the number of Pseudomonas aeruginosa IFO 12680 killed by heating.
(§5) FIGS. 1 and 2 show curves each indicating the number of gram-negative bacteria killed in a soybean-casein digest broth medium (pH of 5.5) by heating.

Test [8] deals with Salmonella typhimurium IFO 12529. Nature of the test: number of bacteria killed by heating in soybean-casein digest broth medium pH 5.5 (FIG. 2). In kind it is cell-based. The following applies: 1% 1,5-D-anhydrofructose, heated at 60° C. for 10 minutes, pH 5.5 broth.
From the text: FIG. 2 is a curve indicating the number of which Salmonella typhimurium IFO 12529 killed by heating.
as §5

The subject of test [9] is Escherichia coli NRIC 1023. The test can be described thus: Test Example 2 number of living bacteria in noodle soup preserved at 30° C. (FIG. 4). How it is done:
FIG. 4 is a graph showing the number of Escherichia coli NRIC 1023 living in a noodle soup under preservation.
as §1, §2, §3

Test [10] concerns Bacillus subtillis IAM 1249. The test can be described thus: Test Example 1 antibacterial power test using turbidimetry (Table 12). The following applies: for OD^660 (turbidity): shake culture 37° C., 72 hours. In kind it is cell-based. How it is done:
AF was subjected to an antibacterial power test using a turbidimetry. More specifically, a soybean-casein digest broth medium (having a pH value of 5.5) previously sterilized and 1% of AF were placed into a test tube and heated under heating conditions shown in Table 12. Then, 8.7×10^4 CFU of Bacillus subtillis IAM 1249 was inoculated into the test tube, shake culture was carried out at 37° C. for 72 hours, and the turbidity (OD, 660 nm) was then measured.

The test system of another test is Lactobacillus casei. The test can be described thus: Test Example 3 swelling of noodle soup sacks preserved at 30° C. (Table 13). Particulars: 2% of AF. As to the method:
40 Grams of a powdery soup stock (produced by […], Co.), 200 ml of commercially available soy sauce and 2% of AF were added to 1000 ml of water. The mixture was aseptically filtered and charged in an amount of 100 ml into each of ten polypropylene sacks previously sterilized. Meanwhile, 1 ml of the noodle soup (containing a number of living bacteria of 3.1×10^6/ml) deteriorated due to “swelling” caused by Lactobacillus casei was charged into each of the above-prepared ten sacks, which were then sealed so as air not to be left therein. The ten sacks were divided into two groups each consisting of five sacks. One of the groups was not heated, and the other group was heated in a hot water at 55° C. for 10 minutes. Then, both of them were preserved at 30° C., and the occurrence of “swelling” was observed.

[11] abbreviates: noodle soup, heating at 550° C. for 10 minutes after addition of 1,5-D-anhydrofructose vs heating without it.

Regarding `O=C1CO[C@H](CO)[C@@H](O)[C@@H]1O` [AF, 1,5-D-anhydrofructose], the “number of normal vessels / total number of vessels” value in the test with Bacillus subtillis (Heated at 60° C. for 10 minutes, preservation time 12) was 5/5; in the test on Bacillus subtillis (Heated at 60° C. for 10 minutes, preservation time 24) it was 5/5; with Bacillus subtillis (Heated at 60° C. for 10 minutes, preservation time 36) it was 5/5; with Bacillus subtillis (Heated at 60° C. for 10 minutes, preservation time 48) it was 5/5; in the test with Bacillus subtillis (Heated at 60° C. for 10 minutes, preservation time 60) it was 0/5; in the test on Bacillus subtillis (Not heated, preservation time 12), 5/5. The “number of normal vessels / total number of vessels” value is listed as 5/5 in the test on Bacillus subtillis (Not heated, preservation time 24) and 0/5 in the test with Bacillus subtillis (Not heated, preservation time 36). Also, the “proliferation of bacteria during preservation” value in [1] (noodle soup containing 1,5-D-anhydrofructose, 30° C., B-2 vs B-3) is recorded as “suppressed”; in test [9] (noodle soup containing 1,5-D-anhydrofructose, 30° C., B′-2 vs B′-3), “suppressed”. In addition, the “number of living bacteria initially generated (from Q to R)” value in test [1] (setting [11]) is reported as “reduced by about one figure”. For the same compound, in the test with many bacteria, the “concentration exhibiting proliferation-inhibiting effect” value is at most 1%. The “minimum growth-inhibiting concentration (MIC)” value stood at 3% in test [2] (listed as non-heated AF); 3% in [3] (listed as non-heated AF); 5% in [4] (listed as non-heated AF); 4% in test [5] (listed as non-heated AF); 1.5% in test [6] (listed as non-heated AF). Also, the “number of bacteria remaining alive relative to the control” value in test [7] is reported as “one tenth of that in the control”; in test [8], “one hundredth or less of that in the control”. In addition, the “number of living bacteria initially generated (from Q′ to R′)” value in [9] (setting [11]) is “reduced by about one figure”. Further, the “OD^660 (turbidity)” value in test [10] (1% of AF added and not heated) is 0.836; in test [10] (1% of AF, heated at 55° C. for 10 minutes), 0.513; in test [10] (1% of AF, heated at 60° C. for 10 minutes) it was 0.437; in test [10] (1% of AF, heated at 80° C. for 10 minutes), 0.355; in [10] (1% of AF, heated at 90° C. for 10 minutes), 0.338. In addition, the “antibacterial power relative to the control with 1% of AF added and not heated” value in test [10] (heated at 55° C. for 10 minutes after addition of 1% of AF, (1.160-0.513)/(1.160-0.836)) is listed as “about two times”. The “number of normal sacks / total number of sacks” value is on record as 5/5 with Lactobacillus casei (heated at 55° C. for 10 minutes, 5 preservation days at 30° C.); 3/5 with Lactobacillus casei (heated at 55° C. for 10 minutes, 10 preservation days at 30° C.); 1/5 with Lactobacillus casei (heated at 55° C. for 10 minutes, 15 preservation days at 30° C.); 0/5 in the test on Lactobacillus casei (heated at 55° C. for 10 minutes, 20 preservation days at 30° C.); 4/5 in the test on Lactobacillus casei (not heated, 5 preservation days at 30° C.); 0/5 in the test on Lactobacillus casei (not heated, 10 preservation days at 30° C.).

As for `O=C1CO[C@H](CO)[C@@H](O)[C@@H]1O` [heated AF, 1,5-D-anhydrofructose], the “minimum growth-inhibiting concentration (MIC)” value is listed as 1% in test [2]; 1% in test [3]; 2% in [4]; 2% in test [5]; 0.5% in test [6].

The values above are taken from patent US6824801B2, “Process for producing foods having good keeping qualities and food keeping agents” (Nihon Starch Co., Ltd., priority 2000, dated 2004).
